From article PMC8512147, “Multifunctional Small Molecules as Potential Anti-Alzheimer’s Disease Agents” (Molecules, 2021)

Tests used:
[1] = Protonation constants by pH-potentiometric / UV–Vis spectrophotometric titration; format: physicochemical; settings: pH 7.4, CL = 10^−5 M
Protocol: As concerns the metal chelation studies, potassium hydrogen phthalate (C8H5KO4, p.a.) was acquired from BDH, whereas dimethylsulfoxide (DMSO, dried, p.a.) and potassium chloride (KCl, p.a.) were supplied by Sigma-Aldrich. Aqueous solutions of metal ions were prepared starting from 1000 ppm standards (Titrisol, Sigma-Aldrich), to obtain solutions FeCl3 0.018 M and CuCl2 0.015 M. The metal content of solutions was evaluated by atomic absorption. Iron stock solution was prepared with an excess of acid chloride to avoid hydrolysis and its concentration in HCl was determined by the usual standard-addition method using 0.1M HCl (Titrisol). The 0.1M HCl solution, used in calibration of the glass electrode and in spectrophotometric titrations, was prepared from a Titrisol ampoule. […]
The spectrophotometric measurements were carried out in a 250–450 nm wavelength range at pH ca. 2.5–11.8. Under the stated experimental conditions, the pKw value (14.27) was determined and subsequently used in the computations. […] The metal hydrolysis model was determined under the defined experimental conditions (I = 0.1 M KCl, 20% w/w DMSO/H2O, T = 25.0 ± 0.1 °C) and the following values of stability constants were included in the fitting of experimental data towards the equilibrium models related to the Fe^3+/L and Cu^2+/L systems: log β (FeH-2) = −6.78, log β (FeH-3) = −10.78; log β (Cu2H-2) = −9.94. […]

Aβ1–42 peptide = Aβ1–42 peptide (Homo sapiens, UniProt P05067); experiment: Inhibition of self-mediated Aβ1–42 aggregation, Thioflavin T fluorescence assay; format: biochemical; design: Amyloid-β peptide (1–42) was purchased from GeneCust; purchased GeneCust; settings: compounds 80 μM, without copper; ThT fluorescence; mean of two independent measurements in duplicate; read-out: Inhibition of Aβ1–42 Aggregation (%) Self-Aβ Aggr.
Protocol: The studied compounds (1a–e) were tested in vitro to evaluate their activity as inhibitors of Aβ1-42 peptide aggregation, through the Thioflavin T (ThT) fluorescence assay. This method is based on the strong ability of the dye ThT to bind β-amyloid fibrils and oligomers through ionic and hydrophobic interactions, while its interaction with β-amyloid monomers is extremely weak. The intercalation of compounds in the β-sheet structure of amyloid protein may prevent fibrils aggregation and ThT binding, and it is evaluated by fluorimetry. The fluorescence emission measurements were performed after overnight incubation of the self-mediated or Cu^2+-induced Aβ fibril aggregates with the studied compounds.
The inhibition of β-amyloid (Aβ) aggregation was studied through the Th-T fluorescence assay, which was performed using a Varian Cary Eclipse fluorimeter at the following wavelengths: excitation (446 nm) and emission (485 nm). Amyloid-β peptide (1–42) was purchased from GeneCust as lyophilized powder stored at −20 °C.
The method used is based on thioflavin T (ThT) fluorescence emission, which depends on the interaction of this dye with Aβ fibrils. The assay is performed with the Aβ1–42 peptide sample, which was previously prepared by solubilization of its lyophilized powder in 1,1,1,3,3,3–hexafluoro-2-propanol (HFIP), an organic solvent useful to solubilize and monomerize the β-sheets protein aggregates. After 24 h, the solution was divided into Eppendorf tubes kept in ice, and then, HFIP was left to evaporate overnight (T = 25 °C). The resultant films were stored in the freezer. […] Compounds were dissolved in MeOH (1 mg/mL) and diluted with phosphate buffer to reach a ligand stock solution of 480 μM. Two different types of experiments were prepared in a final volume of 60 μL: control ligand assays (Aβ1–42 aggregation in the absence of inhibitor) and ligand assays (effect of ligand on Aβ1–42 aggregation). For each experiment, a blank sample without Aβ1–42 was used to monitor the effect of the compounds in fluorescence. To study the inhibition of aggregation in the presence of Cu^2+, which is known to promote it, an intermediate stock solution of CuCl2 in phosphate buffer (240 µM) was prepared. Then, it was aliquoted to obtain a final concentration of 40 µM in the samples. All samples were incubated in a water bath for 24 h at 37 °C. Then, 180 µL of ThT (5 µM) in glycine-NaOH buffer (50 mM, pH = 8.5) is added to each solution and 200 µL of it is placed in a 96-well plate (BD Falcon) to be read with the fluorimeter. After 5 min of incubation with ThT, fluorescence was measured at 446 nm (ʎ excitation) and 485 nm (ʎ emission).

[2] = Radical scavenging activity, DPPH method; format: biochemical; settings: MeOH, 30 min, r.t., mean ± SD of 3 independent experiments
Source text: Commercial ferulic acid (FA) and all the newly synthesized compounds 1a–e were studied for their radical scavenging activity, following the protocol previously reported. The activity of each compound is expressed as EC50 and is related to its interaction with the free stable radical 2,2-diphenyl-1-picrylhydrazyl (DPPH•).
For the physicochemical and biological studies, analytical grade reagents and solvents were supplied by Sigma-Aldrich (St. Louis, MO, USA), Fluka (Buchs, Switzerland) and Acros (Geel, Belgium). They were used as received without any purification. The antioxidant activity assay was performed in a quartz cell of 1 cm path length with a Perkin-Elmer Lambda 35 UV–Vis spectrophotometer equipped with a temperature programmer PTP1+1 Peltier System (T = 25.0 ± 0.1 °C).
Compounds were evaluated for their radical scavenging activity by the Blois method using DPPH (2,2-diphenyl-1-picrylhydrazyl), a stable free-radical. It absorbs in methanol solution at 517–520 nm and it is a scavenger for other radicals converting itself in the reduced form DPPHH. The assay consists of preparing solutions of increasing concentration of each compound starting from a stock solution (2–3 × 10^−4 M), adding to them 2.5 mL DPPH (0.002% in MeOH, 50–100 µM) and the necessary volume of MeOH to reach the final volume 3.5 mL for each sample. The control sample was made up of DPPH and MeOH. Solutions were protected from light at r.t. for 30 min and then absorbance was measured at 517 nm with a Perkin Elmer Lambda 35 UV–Vis spectrophotometer, using methanolic solution as the blank in the other cell. All the studied compounds have good solubility in MeOH, so their solutions could be prepared. The assay was repeated three times for all compounds and the antioxidant activity, expressed as EC50, was calculated by Equation (1). %AA = ((ADPPH − Asample)/ADPPH) × 100,(1)

Aβ1–42 peptide, sequence (P05067 672-713): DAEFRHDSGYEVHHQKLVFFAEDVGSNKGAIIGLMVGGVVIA

SMILES | predominant species neutral HL at physiological conditions [1] [%] | inhibition at 80 µM (Aβ1–42 peptide) [%] | EC50 [2] [µM]
COc1cc(/C=C/C(=O)NOCc2ccccc2OC)ccc1O [Compound 1a, (E)-3-(4-hydroxy-3-methoxyphenyl)-N-((2-methoxybenzyl)oxy)acrylamide] | 96 | 42.6 | 34 ± 1
COc1cc(/C=C/C(=O)NOCc2cccc(Cl)c2)ccc1O [Compound 1d, (E)-N-((3-chlorobenzyl)oxy)-3-(4-hydroxy-3-methoxyphenyl)acrylamide] | 97 | 34.1 | 33 ± 1
